Patent US10598667B2, “Functional illumination in living cells” (The Regents of the University of California, priority 2013, dated 2020)
Entries after “also recorded” stand apart in the source; their conditions may differ. Where no end group is shown, it is not given here. [ ]: non-standard residue; d: D form. pS = N[C@@H](COP(=O)(O)O)C(=O)O

Legend:
[1] = Fluorescent activation of MG by peptide compared with LTA2 and LTA10; type: binding; details: preliminary data
Text: We expect to generate a toolbox of functional illuminant peptides that can be used in a broad range of biological applications. Translating the peptides identified in aim 1 to highly sensitive and specific functional illuminants in living cells, however, is more challenging. In this proposal, we will characterize the utility of these peptides in live cells with an emphasis on phosphorylation (Aim 2) and histone epigenetics (Aim 3). As indicated above, we plan to design and synthesize a series of dyes candidates for GESI development. We are cognizant that many organic dyes bind non-specifically to many proteins, but usually at rather high concentration (mM). […] It is also important to realize that not all binding events will activate fluorescence. […] This works in our favor as not all non-specific binding (if there is any) will lead to activation of the dyes. One concern that the previous reviewers have was the large number of Trp in our initial leads (e.g. LTA2 and LTA10). As shown in the preliminary data, many strong activators for MG have low number of Trp. For example, fluorescent activation of MG by LRRAS(P)LFYGMWYPST (SEQ ID NO:227), with only 1 Trp, is 4-5× brighter than that of LTA2 and LTA10.

[2] = Sequential screening of PDMS affixed OBOC bead array with three dyes; type: binding; details: 100 μM dye in PBS, three dyes incubated sequentially on the same bead array
Experimental: Silicon Elastomer Base was mixed completely with Silicone Elastomer Curing Agent at ratio 10:1 in volume and the solution was kept in vacuum container for 15 to 20 minutes to eliminate the gas bubbles formed during the mixing process. After the removal of all residual bubbles, approximately 0.5-1 mL of PDMS solution was added into the bottom of a 60 mm culture dish. The dish was then spun on a single wafer spin processor (Laurell Technologies Corporation®, model WS-6505-6NPP/Lite) to evenly distribute the solution over the plates, at a speed of 4000 rpm for 30 s. A 5 μm layer of PDMS was formed on the bottom of dish and was cured at 80° C. for 5 min or at room temperature for 24 hrs to allow for beads immobilization. Knowing that the PDMS coating was about 5 μm thick and the radius of bead was around 45 μm, the percentage of free bead surface area was estimated by the formula of [1-2πrh/4πr^2]×100% (h=thickness of PDMS layer; r=radius of bead) to be approximately 95%. The library beads resuspended in 70% ethanol solution were first randomly placed on the surface of a glass plate that was 10% smaller than the dish used in the experiment. After the ethanol evaporated, a syringe needle was used to adjust the dry beads to evenly redistribute beads on the glass surface. Then the dish was inverted and the PDMS layer was pressed down onto the glass plate with beads. The library beads were embedded partly inside the PDMS layer.
(§1) Dye solutions were prepared in PBS to a 100 μM final concentration and 5 mL of each dye solution were added into the 60 mm dish with beads. Three dyes were tested sequentially. The dish was kept swirling at 60 rpm on the rotator. The dye binding was monitored for 90 minutes, and then the dye solution was removed from the dishes and PBS was added to rinse the beads on the bottom to remove the color dye. The PBS solution was changed every 30 min and the dish was always swirled as above. The beads color change was also observed and recorded at certain time interval during the whole wash process to collect data of color dissociation. Before adding the next dye solution, beads were washed with 70% ethanol to completely remove residual dye and were rinsed with PBS solution three times afterwards.
(§2) A representative positive bead for each color was selected for the color binding and dissociation study. A series of images were taken at different time points during the binding and washing process. From the images taken, regions of interest (ROI) with the same size were picked up from the color beads and colorless control beads. The value from the control bead was subtracted from the color bead to get quantitated color value for each single color bead. The measure of the color intensity for each color dye was performed using the Kodak Image Station 2000MM.
The PDMS affixed bead array was incubated with three different dyes sequentially. […] Eleven beads were selected for further analysis based on their characteristic binding profiles (FIG. 2). […] The amino acid sequences of the peptides bound to the beads were determined (Table 1).

[3] = Real time association and dissociation of dye to bead (color intensity); type: binding
Experimental: as §1, §2
(§3) With the PDMS affixed bead method, it is possible to dynamically observe the peptide-dye interaction on each individual immobilized bead in real time. To further characterize the binding profile for each of the target/sequence interactions, beads #1, #4 and #10 were selected for binding and dissociation study with each respective target dye, by measuring the intensity of the resulting color accumulation on the bead surface at different time points. The values obtained for color intensity across progressing time points were plotted and the profiles for the three dye/bead interactions were compared. The association and dissociation rate of each organic dye to its respective binding peptide was evaluated. […]

[4] = Histone H2 tail OBOC library screening with DMHBI; type: binding; details: library peptide fused to N-terminal H2
Experimental: An OBOC combinatorial library was prepared for the development of GESIs for probing histone H2 tail. The library design is shown in FIG. 20C, wherein X represents all 20 eukaryotic amino acids except for cysteine; all possible post-translational modification states of Ser-1 and Lys-5 are incorporated; and additional Xs at the N-terminus of the histone tail will provide necessary capturing residues for fluorescent dyes.

[5] = Real time association and dissociation of dye to bead (color intensity); type: binding; remark: listed apart in the source
Experimental: as §1, §2, §3

[6] = Fluorescence titration of peptide in solution with MG, 2 mM Ca2+, 650 nm; type: binding
Experimental: (§4) Two peptides that can activate MG with or without calcium sensitivity were selected for further characterization. A solution form of the two peptides were synthesized and titrated with MG in the presence of 2 mM Ca^2+. Fluorescent signal at 650 nm was measured. […] Computational modeling confirmed stably folded structure of peptide 12 upon MG binding, preventing intramolecular motions of MG (FIG. 8B, FIG. 10A, B). […] The immobilized peptides on TentaGel beads were then titrated with an increasing amount of MG in the presence and absence of 2 mM Ca^2+. Fluorescent emission at 650 nm by each individual bead was measured. […] Computational modeling further confirmed that stably folded structure of peptide 2 only forms upon calcium binding (FIG. 11B).

[7] = Titration of immobilized peptides on TentaGel beads with MG in presence and absence of 2 mM Ca2+; type: binding; details: presence vs absence of 2 mM Ca2+, peptide on bead
Experimental: as §4

HEK293 cells = assay: Dual-color confocal imaging of Cerulean-linker-peptide fusion proteins with MG and acetylcholine; type: cell-based
Text: To evaluate the utility of lead peptides in mammalian cells, individual peptide tags were fused to the C-terminus of a cyan fluorescence protein (Cerulean 3) anchored on the plasma membrane. An amino acid linker (GGSGSGGS: SEQ ID NO:33) was placed between C-terminus of Cerulean and the peptide to increase the solubility and stability of the recombinant fusion proteins. Goals for the design of fusion proteins are two-folds. First, the labeling ability of peptides can be readily detected by co-localization of both cyan and infrared fluorescence. Second, the calcium sensing ability of peptide can be tested by taking advantage of endogenous acetylcholine (Ach) receptors; Ach stimulus leads to transient calcium influx in cytosol, which may lead to increased MG fluorescence. Given the limited membrane permeability of MG, a relative high concentration of MG (5×10^−7 M) was used for the imaging assay. 48 hrs post-transfection, time-lapse, dual-color confocal fluorescence microscopy images were taken upon MG incubation, followed by Ach addition. […] The fluorescence intensity reached plateau within seconds and remains stable during the 10 mins period of imaging window. In contrast, no apparent infrared fluorescence was observed when membrane-anchored Cerulean control (without grafted peptide) was expressed upon MG addition (FIG. 15A). […]

[8] = MG binding of peptide ligands from screening and their derivatives; design: key to MG binding: −: no binding; +: weak binding; ++: mild binding; +++: strong binding; ++++: very strong binding; details: 11 hour incubation with 5 μM MG in PBS buffer (pH 7.4)

Substance: LRRAS(P)LFYGMWYPST (LRRA[pS]LFYGMWYPST)
- Fluorescent activation of MG, brightness relative to LTA2 and LTA10 [1]: 4-5 ×

Substance: CHTHILC (not fully specified (bridges); cysteine pairing not given here; also: bead-bound) [Bead #4]
- Dye binding ([2]; listed as # 4): Bromocresol
- Dye binding ([2]; listed as #4): only bind to bromocresol purple; also recorded: bind only to bromocresol purple
- Time to maximum color binding ([3]; bead incubated with bromocresol purple): around 75 minutes
- Time until color disappeared (dissociation) ([3]; washing): ≤ 72 h

Substance: DPSWPNS(P)GRGK(Ac) (DPSWPN[pS]GRGK(Ac))
- DMHBI activation [4]: DMHBI activating

Substance: CKWILPC (not fully specified (bridges); cysteine pairing not given here; also: bead-bound) [Bead #10]
- Dye binding ([2]; listed as #10): bind to both indigo carmine and bromocresol purple
- Time until colorization was seen ([5]; bead incubated with indigo carmine): within five minutes
- Time until color completely gone (dissociation) ([5]; washing with PBS): 20 min
- Binding and dissociation rates compared with indigo carmine ([3]; bromocresol purple): much slower

Substance: VWDGIRS(P)GRGK(Ac) (VWDGIR[pS]GRGK(Ac))
- DMHBI activation [4]: DMHBI activating

Substance: GLFDQES(P)GRGK (GLFDQE[pS]GRGK)
- DMHBI activation [4]: DMHBI activating

Substance: CNSPDIC (not fully specified (bridges); cysteine pairing not given here; also: bead-bound) [Bead #1]
- Dye binding ([2]; listed as # 1): Malachite green
- Dye binding ([2]; listed as #1): only bind to malachite green; also recorded: bind only to malachite green
- Time after which color had not completely diminished (dissociation) ([5]; after washing): > 72 h

Substance: DWWWDGFERLEE (synthetic genetically encoded small illuminant (GESI) malachite green (MG) binding Peptide 2)
- Binding characteristics in solution studies [6]: strong binding characteristics
- Increase of MG binding affinity by calcium [7]: about 10 fold
- Increase of MG binding affinity by calcium ([7]; listed as peptide 2): 10 fold
- Sensitivity to calcium upon acetylcholine stimulation (HEK293 cells): showed sensitivity to calcium
- Increase of MG fluorescence intensity upon Ach addition (HEK293 cells; living cells): 4 fold
- MG binding [8]: ++

Substance: TRPSMWS(P)GRGK(Ac) (TRPSMW[pS]GRGK(Ac))
- DMHBI activation [4]: DMHBI activating
